The source of these data is patent publication US10414789B2, “Compositions comprising cyclic purine dinucleotides having defined stereochemistries and methods for their preparation and use” (ADURO BIOTECH, INC., priority 2012, dated 2019).

One experiment has as its system DC2.4 cells. As to the kind of experiment: IFN-β induction by CDNs in DC2.4 antigen presenting cells (L929-ISRE luciferase reporter readout). Type of experiment: cell-based, mouse. As to conditions: for relative level of IFN-β induced: DC2.4 cells incubated with 5, 20 and 100 μM CDN for 30 minutes, culture fluids after 4 hours, RLU in L929-ISRE reporter cells, FIG. 7; for level of IFN-β expression compared to c-di-GMP or c-di-AMP: cyclic dinucleotides not incubated with SVPD, 100 μM, DC2.4 cells, FIG. 8. As for the experimental part: To measure the level of induced IFN-β, cell culture fluids from each sample were collected after 4 hours, and 10 μL was added to 5×10^4 L929-ISRE luciferase reporter cells cultured in RPMI media+10% FBS.

Experiment [1] has as its system snake venom phosphodiesterase (SVPD). The conditions noted are these: 1 mg SVPD overnight at 37° C.; then 100 μM on DC2.4 cells; FIG. 8.
In the next experiment the test system is TRAMP-C2 tumor cells. As to the kind of experiment: Anti-tumor efficacy of CDNs formulated with GVAX in a subcutaneous murine prostate cancer model. Type of experiment: in vivo, C57BL/6 mice. As to conditions: by day 52 post tumor implantation; s.c. vaccination on days 4 and 11; FIG. 12. On the procedure: The relative in vivo anti-tumor efficacy of the Rp, Rp dithio c-di-AMP and unmodified c-di-AMP derivatives were evaluated in a subcutaneous mouse model of prostate cancer. The derivative molecules were formulated with 1×10^6 irradiated whole TRAMP-C2 murine prostate tumor cells expressing GM-CSF (GVAX). Groups of 5 male C57BL/6 mice were implanted with 1×10^5 TRAMP-C2 tumor cells subcutaneous in the footpad. On days 4 and 11 post tumor implantation, mice were administered vaccinations subcutaneous in the flank of either GVAX alone, or GVAX formulated with RR-CDA or CDA, and compared to HBSS control. Tumor growth was monitored by calipers, and tumor volume was calculated.

Experiment [2] deals with SIV gag-specific CD8+ and CD4+ T cell responses. As to the kind of experiment: SIV gag-specific CD8 and CD4 T cell responses by IFNγ ELISpot after vaccination with SIV gag protein plus CDN. Type of experiment: in vivo, C57BL/6 mice. As to conditions: 1 ug CDN with 10 ug SIV gag protein in 2% squalene-in-water, s.c. twice 20 days apart, spleens six days after second vaccination; FIG. 10. On the procedure: To further assess the immunogenicity of Rp, Rp dithio c-di-GMP relative to unmodified c-di-GMP molecules, SIV gag-specific CD8+ and CD4+ T cell responses were measured. Five C57BL/6 mice per group were immunized subcutaneously twice with either 1 ug Rp, Rp dithio c-di-GMP or saline control formulated in 2% squalene-in-water with 10 ug SIV gag protein. Vaccinations were separated by 20 days, and spleens were harvested six days after the second vaccination. Immune responses were measured to SIV gag-specific CD8 (AL11, SIV gag312-322, A) and CD4 (DD13, SIV gag300-312, B) T cell epitopes by IFNγ ELISpot assay. Plates were scanned and spot forming cells (SFC) per well were enumerated using an ImmunoSpot analyzer (CTL).

In experiment [3] the test system is OVA257-specific CD8 T cell responses. As to the kind of experiment: OVA-specific CD8 T cell memory and expansion in PBMC by intracellular cytokine staining after prime-boost vaccination. The class given is in vivo, C57BL/6 mice. On the procedure:
(§1) To establish the enhanced immunogenicity and accompanying protective immunity induced by Rp, Rp dithio c-di-GMP relative to unmodified c-di-GMP, OVA-specific CD8 T cell responses measured in PBMC and protective immunity assessed against lethal bacterial challenge. Vaccines were prepared by combining 10 μg of OVA protein (EndoFit OVA, InVivogen) and Addavax (2% squalene final) with 25 μg of cyclic dinucleotide, in a total volume of 100 μL. Groups of five female C57BL/6 mice (H-2^b) were immunized twice subcutaneously (s.c) in the base of the tail with the vaccine preparations. The interval between the prime and boost immunizations was 36 days. The magnitude of both the memory and expansion phases of the OVA257-specific CD8 T cell responses in PBMC were quantified by intracellular cytokine staining (ICS) analysis at both 27 days post-boost vaccination and at 3 days post challenge with a 2× lethal dose (LD)50 dose (1×10^5 colony forming units; CFU) of OVA-expressing wild-type Listeria monocytogenes (WT Lm-OVA). For ICS analysis, 1×10^5 PBMCs from test mice combined with 1×10^5 splenocyte feeder cells isolated from aged-matched naïve C57BL/6 mice were un-stimulated or stimulated with 1 μM of MHC class I peptide (OVA257-264 SIINFEKL) for 5 hrs. in the presence of Brefeldin A, and IFN-γ production was measured by flow cytometry on a BD FACSVerse.

In experiment [4] the test system is THP1-Blue human monocytes. In words: IFN-β induction in THP1-Blue human monocytes (IRF-inducible SEAP reporter). As to conditions: FIG. 15. Type of experiment: cell-based. As for the experimental part: To determine the relative potency of the prodrug form of c-di-GMP to activate the innate immune response, relative levels of IFN-β induced in a human monocyte cell line were assessed. […] Cell culture supernatants from each sample were collected after 4 hours. 10 μL of the cell culture supernatants was added to QUANTI-Blue reagent (Invivogen) and incubated for 15-30 minutes. Absorbance at 655 nm was measured using a Model 680 spectrophotometer (BioRad).

For experiment [5], the system named is OVA-expressing wild-type Listeria monocytogenes (WT Lm-OVA). As to the kind of experiment: Protective immunity against lethal WT Lm-OVA challenge (spleen CFU). The class given is in vivo, C57BL/6 mice. As to conditions: i.v. 2×LD50 (1×10^5 CFU) WT Lm-OVA at 27 days post boost; spleens 3 days later; FIG. 11C. On the procedure: as §1, with “FACSVerse. […]” for “FACSVerse.”

For experiment [6], the system named is OVA-specific CD4+ and CD8+ T cell responses. As to the kind of experiment: OVA-specific CD4+ and CD8+ T cell responses in PBMC by IFN-γ ELISpot after vaccination with OVA/Addavax plus CDN. Type of experiment: in vivo, C57BL/6 mice. As to conditions: once s.c., PBMC 10 days post vaccination, FIG. 9. On the procedure: To test the enhanced in vivo immunogenicity of Rp, Rp dithio c-di-GMP relative to unmodified c-di-GMP molecules, OVA-specific CD4+ and CD8+ T cell responses were measured in PBMCs at 10 days post vaccination in conjunction with CDN treatment. Vaccines were prepared by combining 10 μg of OVA protein (EndoFit OVA, InVivogen) and Addavax (2% squalene final) with either 25 μg or 5 μg of cyclic dinucleotide, in a total volume of 100 μL. Groups of five female C57BL/6 mice (H-2b) were immunized once subcutaneously (s.c) in the base of the tail with the vaccine preparations, and the OVA-specific CD4+ and CD8+ T cell responses in the peripheral blood mononuclear cell (PBMC) compartment were determined by ELISpot analysis 10 days later. 1×10^5 PBMCs and 1×10^5 splenocyte feeder cells isolated from aged-matched naïve C57BL/6 mice were un-stimulated or stimulated with 1 μM of MHC class II peptide (OVA265-280 TEWTSSNVMEERKIKV) or MHC class I (OVA257-264 SIINFEKL) peptide overnight and IFN-γ spot forming cells were measured, as described previously.

Experiment [7] relates to OVA-specific CD8+ T cell responses. In words: OVA-specific CD8 T cell responses in splenocytes by intracellular cytokine staining after vaccination with CDN prodrug. Type of experiment: in vivo, C57BL/6 mice. The conditions noted are these: 5 μg CDN prodrug with 10 μg OVA and Addavax, s.c. twice, splenocytes 7 days post second vaccination; FIG. 16. On the procedure: To assess the ability of the mono-2′-O-myristoyl c-di-GMP (“mono-2′-O-myristoyl CDG”) derivative to induce in vivo immune responses, OVA-specific CD8 T cell responses were measured in splenocytes at 7 days post second vaccination in conjunction with CDN treatment. To test the ability of mono-2′-O-myristoyl c-di-GMP relative to stimulate an OVA-specific immune responses, vaccines were prepared by combining 10 μg of OVA protein (EndoFit OVA, Invivogen) and Addavax (2% squalene final) with either 0 (Control) or 5 μg of mono-2′-O-myristoyl c-di-GMP derivative (“mono-2′-O-myristoyl CDG”), in a total volume of 100 μL. Groups of five female C57BL/6 mice (H-2b) were immunized twice subcutaneously (s.c) in the base of the tail with the vaccine preparations, and the OVA-specific CD8+ T cell responses in the spleens were determined by intracellular cytokine staining 7 days later. 1×10^6 splenocytes were unstimulated or stimulated with 1 μM of MHC class I (OVA257-264 SIINFEKL; SL8) peptide overnight and IFN-γ production was measured by flow cytometer on a BD FACSVerse.

As for `Nc1ncnc2c1ncn2C1OC2COP(=O)(S)OC3C(COP(=O)(S)OC2C1O)OC(n1cnc2c(N)ncnc21)C3O` (stereo not drawn) [Rp, Rp dithio c-di-AMP, dithio [Rp,Rp] c-di-AMP], in the experiment with DC2.4 cells, the “relative level of IFN-β induced” value is “induced significantly higher levels of IFN-β than either the c-di-GMP or c-di-AMP unmodified cyclic dinucleotide molecules” and the “level of IFN-β expression compared to c-di-GMP or c-di-AMP” value is “greater”. The “level of IFN-β expression after incubation of the CDN with SVPD versus without SVPD” value (“level … with SVPD versus without SVPD” for short) in [1] is reported as “equivalent”. Also, in the experiment on TRAMP-C2 tumor cells, the “anti-tumor efficacy compared to GVAX alone or GVAX formulated with unmodified c-di-AMP” value is on record as “increased anti-tumor potency”.
Consider `Nc1nc2c(ncn2[C@@H]2O[C@@H]3CO[P@@](=O)(S)O[C@H]4[C@@H](O)[C@H](n5cnc6c(=O)[nH]c(N)nc65)O[C@@H]4CO[P@@](=O)(S)O[C@H]3[C@H]2O)c(=O)[nH]1` [Rp, Rp dithio c-di-GMP, dithio [Rp,Rp] c-di-GMP], for which the “SIV gag-specific CD8 and CD4 T cell responses compared to saline control” value in experiment [2] is on record as “significantly higher”. Besides, in the experiment with DC2.4 cells, the “relative level of IFN-β induced” value is reported as “induced significantly higher levels of IFN-β than either the c-di-GMP or c-di-AMP unmodified cyclic dinucleotide molecules” and the “level of IFN-β expression compared to c-di-GMP or c-di-AMP” value is reported as “greater”. The “level … with SVPD versus without SVPD” value in [1] is “equivalent”. Besides, the “OVA-specific CD8 T cell memory compared to unmodified c-di-GMP adjuvanted vaccines” value in experiment [3] (25 μg CDN, s.c. prime and boost 36 days apart, PBMC 27 days post-boost, FIG. 11A) is reported as “higher magnitude of OVA-specific CD8 T cell memory”. In [3] (3 days post challenge with 2× LD50 WT Lm-OVA, FIG. 11A), the “expansion of OVA-specific memory CD8 T cells following challenge, compared to unmodified c-di-GMP adjuvanted vaccines” value is on record as “expanded to a higher magnitude”. Also, the “magnitude of OVA-specific CD8 T cell memory” value in experiment [3] (FACS plot, FIG. 11B, 25 μg CDN adjuvanted vaccine) is listed as ~30 % of the total CD8 T cell population in PBMC. Besides, the “IFN-β induction compared to Rp, Sp dithio c-di-GMP and unmodified c-di-GMP” value in [4] (human monocyte cell line) was “superior induction”. In [5], the “protection against virulent pathogen challenge (spleen colonies)” value is “complete protection (below the limit of detection, LOD)”. For the same molecule, in experiment [6] (5 μg CDN), the “magnitude of antigen-specific CD8+ T cell responses compared to 5 μg or 25 μg of unmodified c-di-GMP” value was “greater”. In addition, in experiment [6] (same amount of CDN adjuvant (25 μg or 5 μg)), the “CD4+ and CD8+ OVA-specific T cell responses compared to unmodified c-di-GMP” value is recorded as “of greater magnitude”.
As to `Nc1ncnc2c1ncn2C1OC2COP(=O)(S)OC3C(COP(=O)(S)OC2C1O)OC(n1cnc2c(N)ncnc21)C3O` (stereo not drawn) [Rp, Sp dithio c-di-AMP, dithio [Rp,Sp] c-di-AMP], the “relative level of IFN-β induced” value in the experiment on DC2.4 cells was “lower than the level induced by both the Rp, Rp dithio c-di-GMP and the Rp, Rp dithio c-di-AMP diastereomers as well as the native c-di-GMP and c-di-AMP molecules”.
Take `Nc1nc2c(ncn2[C@@H]2O[C@@H]3CO[P@@](O)(=S)O[C@H]4[C@@H](O)[C@H](n5cnc6c(=O)[nH]c(N)nc65)O[C@@H]4CO[P@](O)(=S)O[C@H]3[C@H]2O)c(=O)[nH]1` [Rp, Sp dithio c-di-GMP, dithio [Rp,Sp] c-di-GMP]: the “relative level of IFN-β induced” value with DC2.4 cells was “lower than the level induced by both the Rp, Rp dithio c-di-GMP and the Rp, Rp dithio c-di-AMP diastereomers as well as the native c-di-GMP and c-di-AMP molecules”.
Take `Nc1ncnc2c1ncn2[C@@H]1O[C@@H]2COP(=O)(O)O[C@H]3[C@@H](O)[C@H](n4cnc5c(N)ncnc54)O[C@@H]3COP(=O)(O)O[C@H]2[C@H]1O` [c-di-AMP, reference compound]: the “level … with SVPD versus without SVPD” value in [1] is “significantly lower”.
In the case of `Nc1nc2c(ncn2[C@@H]2O[C@@H]3COP(=O)(O)O[C@H]4[C@@H](O)[C@H](n5cnc6c(=O)[nH]c(N)nc65)O[C@@H]4COP(=O)(O)O[C@H]3[C@H]2O)c(=O)[nH]1` [c-di-GMP, reference compound], the “level … with SVPD versus without SVPD” value in experiment [1] was “significantly lower”.
Regarding `CCCCCCCCCCCCCC(=O)OC1C2OP(=O)(O)OCC3OC(n4cnc5c(=O)[nH]c(N)nc54)C(O)C3OP(=O)(O)OCC2OC1n1cnc2c(=O)[nH]c(N)nc21` (stereo not drawn) [mono-2′-O-myristoyl c-di-GMP], the “OVA-specific CD8 T cell immune responses compared to Control vaccines” value in [7] is given as “greater immune responses”. Also, in experiment [4] (100 μM for 30 minutes, supernatants after 4 hours, absorbance at 655 nm), the “levels of IFN-β induced compared to unmodified c-di-GMP and background (HBSS)” value is reported as “significantly higher levels of IFN-β”.
